Data on 20 compounds can be found in patent US9593108B2, “Compounds and methods for antiviral treatment” (PTC Therapeutics, Inc., priority 2009, dated 2017).

pIC50: −log10 of the molar value.

The subject of data set [1] is HCV replicon RNA (GenBank Accession No. AJ242654). In words: HCV Replicon Assay (replicon RNA reduction and/or Fluc reporter signal). It counts as cell-based, Hepatitis C virus. Conditions: Hepatitis C virus, 72 h, replicon-containing cells cultured with test compound for up to 3 days. The method, boiled down:
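IC50 values mostly reflect the drop in replicon RNA, though Fluc reporter signal may also be used. Compound incubated with cells carrying the bicistronic replicon for as long as 3 days; interferon served as positive control.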
Background: In antiviral work, replicon cells carry a viral genome segment that copies itself.

In the case of `Cc1cnc2c(C#N)c(-c3ccc(S(=O)(=O)NC(C)(C)C)cn3)n(C3CCCC3)c2c1` [Cpd 175, N-tert-butyl-6-(3-cyano-1-cyclopentyl-6-methyl-1H-pyrrolo[3,2-b]pyridin-2-yl)pyridine-3-sulfonamide], the melting point lay within 267 to 269 °C. In addition, the pIC50 in data set [1] was more than 6.30.

On to `Cc1cnc2c(C#N)c(-c3ccc(S(=O)(=O)NC(CF)CF)cn3)n(C3CCCC3)c2c1` [Cpd 176, 6-(3-cyano-1-cyclopentyl-6-methyl-1H-pyrrolo[3,2-b]pyridin-2-yl)-N-(1,3-difluoropropan-2-yl)pyridine-3-sulfonamide], for which the melting point was 248 to 249 °C. The compound also showed a pIC50 in data set [1] of more than 6.30.

The compound `Cc1cnc2c(C#N)c(-c3ncc(S(=O)(=O)NC(CF)CF)cn3)n(C3CCCC3)c2c1` [Cpd 177, 2-(3-cyano-1-cyclopentyl-6-methyl-1H-pyrrolo[3,2-b]pyridin-2-yl)-N-(1,3-difluoropropan-2-yl)pyrimidine-5-sulfonamide] came in with a melting point of 256 to 258 °C. Besides, the pIC50 in data set [1] is more than 6.30.

`Cc1cnc2c(C#N)c(-c3ncc(S(=O)(=O)NC(C)C)cn3)n(C3CCCC3)c2c1` [Cpd 178, 2-(3-cyano-1-cyclopentyl-6-methyl-1H-pyrrolo[3,2-b]pyridin-2-yl)-N-(propan-2-yl)pyrimidine-5-sulfonamide] gave a melting point of 263 to 265 °C. This compound also had a pIC50 in data set [1] of more than 6.30.

For `Cc1cnc2c(C#N)c(-c3ncc(S(=O)(=O)N[C@@H](C)C(F)(F)F)cn3)n(C3CCCC3)c2c1` [Cpd 179, 2-(3-cyano-1-cyclopentyl-6-methyl-1H-pyrrolo[3,2-b]pyridin-2-yl)-N-[(2S)-1,1,1-trifluoropropan-2-yl]pyrimidine-5-sulfonamide], the melting point was in the range of 262 to 264 °C. This compound had a pIC50 in data set [1] of more than 6.30.

The compound `Cc1cnc2c(C#N)c(-c3ccc(S(=O)(=O)N[C@@H](C)C(F)(F)F)cc3)n(C3CCCC3)c2c1` [Cpd 180, 4-(3-cyano-1-cyclopentyl-6-methyl-1H-pyrrolo[3,2-b]pyridin-2-yl)-N-[(2S)-1,1,1-trifluoropropan-2-yl]benzenesulfonamide] had a melting point of 278 to 279 °C. The pIC50 in data set [1] was 5.70 to 6.30.

`Cc1cnc2c(C#N)c(-c3ccc(S(=O)(=O)N[C@H](C)C(F)(F)F)cc3)n(C3CCCC3)c2c1` [Cpd 181, 4-(3-cyano-1-cyclopentyl-6-methyl-1H-pyrrolo[3,2-b]pyridin-2-yl)-N-[(2R)-1,1,1-trifluoropropan-2-yl]benzenesulfonamide]: the melting point fell in the range of 281 to 283 °C. In addition, the pIC50 in data set [1] was more than 6.30.

Turning to `CCc1cnc2c(c1)c(C#N)c(-c1ccc(S(=O)(=O)NC(C)(C)C(F)(F)F)cc1)n2C1CCC1` [Cpd 182, 4-(3-cyano-1-cyclobutyl-5-ethyl-1H-pyrrolo[2,3-b]pyridin-2-yl)-N-(1,1,1-trifluoro-2-methylpropan-2-yl)benzenesulfonamide], the melting point was in the range of 190 to 195 °C. Besides, the pIC50 in data set [1] was more than 6.30.

In turn, `CCc1cnc2c(c1)c(C#N)c(-c1ccc(S(=O)(=O)NC3(C(F)(F)F)CC3)cc1)n2C1CCC1` [Cpd 183, 4-(3-cyano-1-cyclobutyl-5-ethyl-1H-pyrrolo[2,3-b]pyridin-2-yl)-N-[1-(trifluoromethyl)cyclopropyl]benzenesulfonamide] displayed a melting point of 161 to 168 °C. Moreover, the negative-log IC50 (pIC50) in data set [1] was 5.70 to 6.30.

In turn, `CCc1cnc2c(c1)c(C#N)c(-c1ccc(S(=O)(=O)NC3(C(F)(F)F)CC3)cn1)n2C1CCC1` [Cpd 184, 6-(3-cyano-1-cyclobutyl-5-ethyl-1H-pyrrolo[2,3-b]pyridin-2-yl)-N-[1-(trifluoromethyl)cyclopropyl]pyridine-3-sulfonamide] returned a melting point of 216 to 221 °C. In addition, the pIC50 in data set [1] is more than 6.30.

`CCc1cnc2c(c1)c(C#N)c(-c1ccc(S(=O)(=O)NC(C)(C)C)cc1)n2C1CCC1` [Cpd 185, N-tert-butyl-4-(3-cyano-1-cyclobutyl-5-ethyl-1H-pyrrolo[2,3-b]pyridin-2-yl)benzenesulfonamide] came in with a melting point of 190 to 196 °C. In data set [1], this compound showed a pIC50 of more than 6.30.

Consider `CCc1cnc2c(c1)c(C#N)c(-c1ccc(S(=O)(=O)NC3(C)CC3)cc1)n2C1CCC1` [Cpd 187, 4-(3-cyano-1-cyclobutyl-5-ethyl-1H-pyrrolo[2,3-b]pyridin-2-yl)-N-(1-methylcyclopropyl)benzenesulfonamide], for which the melting point was in the range of 157 to 163 °C. Moreover, the pIC50 in data set [1] is more than 6.30.

In turn, `CCc1cnc2c(c1)c(C#N)c(-c1ccc(S(=O)(=O)NC(CF)CF)cc1)n2C1CCC1` [Cpd 190, 4-(3-cyano-1-cyclobutyl-5-ethyl-1H-pyrrolo[2,3-b]pyridin-2-yl)-N-(1,3-difluoropropan-2-yl)benzenesulfonamide] registered a melting point of 165 to 171 °C. In addition, in data set [1], the pIC50 was more than 6.30.

As to `CCc1cnc2c(c1)c(C#N)c(-c1ccc(S(=O)(=O)NC(CF)CF)cn1)n2C1CCC1` [Cpd 191, 6-(3-cyano-1-cyclobutyl-5-ethyl-1H-pyrrolo[2,3-b]pyridin-2-yl)-N-(1,3-difluoropropan-2-yl)pyridine-3-sulfonamide], the melting point lay in the range of 157 to 165 °C. The pIC50 in data set [1] is 5.70 to 6.30.

Regarding `CCc1cnc2c(c1)c(C#N)c(-c1ccc(S(=O)(=O)NC3CCC3)cn1)n2C1CCC1` [Cpd 194, 6-(3-cyano-1-cyclobutyl-5-ethyl-1H-pyrrolo[2,3-b]pyridin-2-yl)-N-cyclobutylpyridine-3-sulfonamide], the melting point was 168 to 177 °C. Moreover, in data set [1], the pIC50 is more than 6.30.

Take `CCc1cnc2c(c1)c(C#N)c(-c1ccc(S(=O)(=O)NC(C)C)nc1)n2C1CCC1` [Cpd 195, 5-(3-cyano-1-cyclobutyl-5-ethyl-1H-pyrrolo[2,3-b]pyridin-2-yl)-N-(propan-2-yl)pyridine-2-sulfonamide]: the melting point was 195 to 202 °C. This compound gave a pIC50 in data set [1] of more than 6.30.

Take `CCc1cnc2c(c1)c(C#N)c(-c1ncc(S(=O)(=O)NC(C)C)cn1)n2C1CCC1` [Cpd 196, 2-(3-cyano-1-cyclobutyl-5-ethyl-1H-pyrrolo[2,3-b]pyridin-2-yl)-N-(propan-2-yl)pyrimidine-5-sulfonamide]: the melting point lay within 170 to 178 °C. For the same compound, the pIC50 in data set [1] was more than 6.30.

Turning to `C[C@@H](NS(=O)(=O)c1ccc(-c2c(C#N)c3cc(OC(F)F)cnc3n2C2CCC2)nc1)C(F)(F)F` [Cpd 197, 6-[3-cyano-1-cyclobutyl-5-(difluoromethoxy)-1H-pyrrolo[2,3-b]pyridin-2-yl]-N-[(2R)-1,1,1-trifluoropropan-2-yl]pyridine-3-sulfonamide], the melting point was 149 to 151 °C. Further, the pIC50 in data set [1] is more than 6.30.

In turn, `C[C@H](NS(=O)(=O)c1ccc(-c2c(C#N)c3cc(OC(F)F)cnc3n2C2CCC2)cc1)C(F)(F)F` [Cpd 198, 4-[3-cyano-1-cyclobutyl-5-(difluoromethoxy)-1H-pyrrolo[2,3-b]pyridin-2-yl]-N-[(2S)-1,1,1-trifluoropropan-2-yl]benzenesulfonamide] yielded a melting point of 155 to 156 °C. The compound also showed a pIC50 in data set [1] of 5.70 to 6.30.

`C[C@@H](NS(=O)(=O)c1ccc(-c2c(C#N)c3cc(OC(F)F)cnc3n2C2CCC2)cc1)C(F)(F)F` [Cpd 199, 4-[3-cyano-1-cyclobutyl-5-(difluoromethoxy)-1H-pyrrolo[2,3-b]pyridin-2-yl]-N-[(2R)-1,1,1-trifluoropropan-2-yl]benzenesulfonamide] returned a melting point of 199 to 200 °C. The same compound gave a pIC50 in data set [1] of more than 6.30.

The term pIC50 denotes the IC50 on a negative log10 scale, so that one unit is a factor of ten. One may read the melting point as the temperature of the solid-liquid transition.
